# Numbers after ± are expanded uncertainties.
# Experiment: Molar enthalpy of transition or fusion
# Conditions: Crystal; DSC
row,Molar enthalpy of transition or fusion,SMILES
1,13.2 ± 0.359 kcal/mol,C=C(C)[C@@H]1CC[C@]2(CO)CC[C@]3(C)[C@H](CC[C@@H]4[C@@]5(C)CC[C@H](O)C(C)(C)[C@@H]5CC[C@]43C)[C@@H]12 [betulin]

# Experiment: refractive index (Na D-line) (dimensionless)
# Conditions: 293.15 K; 101.33 kPa; Liquid; Standard Abbe refractometry
row,refractive index,SMILES
1,1.4218 ± 0.0004,CCCCCCCCCCCC [dodecane]
2,1.3329 ± 0.0004,O [water]
3,1.4304 ± 0.0004,CN(C)C=O [dimethylformamide]
4,1.3983 ± 0.0004,CCC(C)O (stereo not given) [butan-2-ol]
5,1.4291 ± 0.0004,CCCCCCCCO [octan-1-ol]
6,1.4542 ± 0.0004,NCCO [2-aminoethan-1-ol]
7,1.4346 ± 0.0004,CCCCCCCCCCCCCCCC [hexadecane]

# Second part, the compound before the results:
row,SMILES,refractive index
1,CCCCCCCCCO [nonan-1-ol],1.4334 ± 0.0004
2,CC#N [acetonitrile],1.3439 ± 0.0004
3,CN1CCCC1=O [N-methylpyrrolidone],1.469 ± 0.0004
4,CCCCCCCC [octane],1.3978 ± 0.0004
5,CCCCCO [pentan-1-ol],1.4098 ± 0.0004
6,O=CN1CCOCC1 [N-formylmorpholine],1.4849 ± 0.0004

# Experiment: not given
# Conditions: Crystal; DTA
row,Normal melting temperature,SMILES
1,255.0 ± 0.4 °C,C=C(C)[C@@H]1CC[C@]2(CO)CC[C@]3(C)[C@H](CC[C@@H]4[C@@]5(C)CC[C@H](O)C(C)(C)[C@@H]5CC[C@]43C)[C@@H]12 [betulin]
